Series [1] addresses Vascular endothelial growth factor receptor 2 (Homo sapiens, UniProt P35968). Briefly: Inhibition of His-tagged human VEGFR2 expressed in Sf9 cells.
In series [2] the test system is HUVEC. Briefly: Antiproliferative activity against HUVEC cells assessed as inhibition of FGF-stimulated proliferation after 5 days by WST-8 assay. The conditions noted are these: Homo sapiens, 120 h. (In general: Tetrazolium dyes change colour on reduction, which living cells bring about.)
Series [3] can be described thus: Solubility of the compound at pH 6.8. It counts as physicochemical. The conditions noted are these: buffer.
Series [4] deals with HUVEC. Briefly: Antiproliferative activity against HUVEC cells assessed as inhibition of VEGF-stimulated proliferation after 5 days by WST-8 assay. The conditions noted are these: Homo sapiens, 120 h.
Series [5] has as its target T1, Fibroblast growth factor receptor 1 (Homo sapiens, UniProt P11362). Briefly: Inhibition of His-tagged human FGFR1 expressed in Sf9 cells.
In another series the target is Angiopoietin-1 receptor (Homo sapiens, UniProt Q02763). Briefly: Inhibition of Tie-2.
Series [6] can be described thus: Inhibition of VEGFR.
The target in series [7] is T1, Fibroblast growth factor receptor 1. In words: Inhibition of FGFR1.
Series [8] is described as follows: Inhibition of PDGFR.

Each structure is given as a SMILES string. In brackets after ≈: the same amount, converted by molar mass.

27 molecules from ChEMBL document CHEMBL1250549, “N-phenyl-N'-[4-(5H-pyrrolo[3,2-d]pyrimidin-4-yloxy)phenyl]ureas as novel inhibitors of VEGFR and FGFR kinases” (Bioorg Med Chem, 2010) can be followed below.

Vascular endothelial growth factor receptor 2, sequence (P35968 whole entry): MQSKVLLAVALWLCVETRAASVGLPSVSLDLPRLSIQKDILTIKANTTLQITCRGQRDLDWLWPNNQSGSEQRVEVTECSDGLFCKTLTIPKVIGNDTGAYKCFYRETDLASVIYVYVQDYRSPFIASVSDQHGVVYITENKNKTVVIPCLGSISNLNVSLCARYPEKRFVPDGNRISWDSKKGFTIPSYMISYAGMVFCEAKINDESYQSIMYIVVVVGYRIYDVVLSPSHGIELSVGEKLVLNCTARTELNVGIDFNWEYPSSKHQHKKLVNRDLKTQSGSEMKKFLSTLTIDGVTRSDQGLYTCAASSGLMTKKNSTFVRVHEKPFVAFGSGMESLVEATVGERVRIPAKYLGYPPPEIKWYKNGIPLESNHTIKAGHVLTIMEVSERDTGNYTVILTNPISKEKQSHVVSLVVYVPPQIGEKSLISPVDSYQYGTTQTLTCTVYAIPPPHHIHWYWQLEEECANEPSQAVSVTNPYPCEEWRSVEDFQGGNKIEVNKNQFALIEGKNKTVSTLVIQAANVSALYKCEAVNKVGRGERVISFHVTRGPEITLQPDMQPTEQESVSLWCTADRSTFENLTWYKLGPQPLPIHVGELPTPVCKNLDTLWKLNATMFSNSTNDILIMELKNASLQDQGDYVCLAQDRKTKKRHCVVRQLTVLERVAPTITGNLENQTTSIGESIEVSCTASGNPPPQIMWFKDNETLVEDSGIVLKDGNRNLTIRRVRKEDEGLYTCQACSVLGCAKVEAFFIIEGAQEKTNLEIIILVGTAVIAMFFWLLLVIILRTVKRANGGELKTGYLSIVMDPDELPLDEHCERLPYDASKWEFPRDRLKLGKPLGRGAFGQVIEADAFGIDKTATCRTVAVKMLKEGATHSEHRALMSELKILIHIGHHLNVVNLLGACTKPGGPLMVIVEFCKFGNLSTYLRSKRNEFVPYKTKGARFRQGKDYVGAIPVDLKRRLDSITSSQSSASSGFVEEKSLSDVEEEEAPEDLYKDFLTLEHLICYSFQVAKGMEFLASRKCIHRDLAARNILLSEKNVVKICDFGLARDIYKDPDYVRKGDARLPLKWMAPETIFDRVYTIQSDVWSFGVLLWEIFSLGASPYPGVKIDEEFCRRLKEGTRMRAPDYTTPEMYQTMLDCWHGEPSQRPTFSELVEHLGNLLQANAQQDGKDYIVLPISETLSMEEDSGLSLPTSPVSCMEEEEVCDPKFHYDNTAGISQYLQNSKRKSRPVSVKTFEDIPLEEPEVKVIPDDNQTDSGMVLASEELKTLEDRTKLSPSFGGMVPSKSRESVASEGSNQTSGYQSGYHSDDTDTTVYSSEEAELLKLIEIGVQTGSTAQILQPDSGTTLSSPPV
T1 sequence (P11362 whole entry): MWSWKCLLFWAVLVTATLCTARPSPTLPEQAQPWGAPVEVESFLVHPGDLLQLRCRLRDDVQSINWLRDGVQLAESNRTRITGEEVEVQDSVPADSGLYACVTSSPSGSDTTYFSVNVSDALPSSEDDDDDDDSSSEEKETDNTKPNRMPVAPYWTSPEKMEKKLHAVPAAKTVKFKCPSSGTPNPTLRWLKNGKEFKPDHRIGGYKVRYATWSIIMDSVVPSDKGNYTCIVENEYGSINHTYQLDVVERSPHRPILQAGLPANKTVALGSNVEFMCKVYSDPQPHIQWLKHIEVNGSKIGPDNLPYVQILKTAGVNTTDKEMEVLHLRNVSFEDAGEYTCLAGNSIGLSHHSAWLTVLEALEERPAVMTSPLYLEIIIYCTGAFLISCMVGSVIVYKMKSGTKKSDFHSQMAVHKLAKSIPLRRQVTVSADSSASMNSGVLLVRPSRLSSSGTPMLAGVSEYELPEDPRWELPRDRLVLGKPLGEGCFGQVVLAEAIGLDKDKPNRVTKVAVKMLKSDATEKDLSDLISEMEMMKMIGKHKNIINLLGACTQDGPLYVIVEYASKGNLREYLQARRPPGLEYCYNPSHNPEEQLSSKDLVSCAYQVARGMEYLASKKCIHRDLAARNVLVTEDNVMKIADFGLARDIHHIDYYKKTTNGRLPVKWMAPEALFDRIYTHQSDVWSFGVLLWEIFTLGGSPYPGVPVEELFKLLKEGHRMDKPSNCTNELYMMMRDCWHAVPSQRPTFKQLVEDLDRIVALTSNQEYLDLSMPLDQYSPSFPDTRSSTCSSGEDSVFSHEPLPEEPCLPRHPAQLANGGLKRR
Angiopoietin-1 receptor, sequence (Q02763 whole entry): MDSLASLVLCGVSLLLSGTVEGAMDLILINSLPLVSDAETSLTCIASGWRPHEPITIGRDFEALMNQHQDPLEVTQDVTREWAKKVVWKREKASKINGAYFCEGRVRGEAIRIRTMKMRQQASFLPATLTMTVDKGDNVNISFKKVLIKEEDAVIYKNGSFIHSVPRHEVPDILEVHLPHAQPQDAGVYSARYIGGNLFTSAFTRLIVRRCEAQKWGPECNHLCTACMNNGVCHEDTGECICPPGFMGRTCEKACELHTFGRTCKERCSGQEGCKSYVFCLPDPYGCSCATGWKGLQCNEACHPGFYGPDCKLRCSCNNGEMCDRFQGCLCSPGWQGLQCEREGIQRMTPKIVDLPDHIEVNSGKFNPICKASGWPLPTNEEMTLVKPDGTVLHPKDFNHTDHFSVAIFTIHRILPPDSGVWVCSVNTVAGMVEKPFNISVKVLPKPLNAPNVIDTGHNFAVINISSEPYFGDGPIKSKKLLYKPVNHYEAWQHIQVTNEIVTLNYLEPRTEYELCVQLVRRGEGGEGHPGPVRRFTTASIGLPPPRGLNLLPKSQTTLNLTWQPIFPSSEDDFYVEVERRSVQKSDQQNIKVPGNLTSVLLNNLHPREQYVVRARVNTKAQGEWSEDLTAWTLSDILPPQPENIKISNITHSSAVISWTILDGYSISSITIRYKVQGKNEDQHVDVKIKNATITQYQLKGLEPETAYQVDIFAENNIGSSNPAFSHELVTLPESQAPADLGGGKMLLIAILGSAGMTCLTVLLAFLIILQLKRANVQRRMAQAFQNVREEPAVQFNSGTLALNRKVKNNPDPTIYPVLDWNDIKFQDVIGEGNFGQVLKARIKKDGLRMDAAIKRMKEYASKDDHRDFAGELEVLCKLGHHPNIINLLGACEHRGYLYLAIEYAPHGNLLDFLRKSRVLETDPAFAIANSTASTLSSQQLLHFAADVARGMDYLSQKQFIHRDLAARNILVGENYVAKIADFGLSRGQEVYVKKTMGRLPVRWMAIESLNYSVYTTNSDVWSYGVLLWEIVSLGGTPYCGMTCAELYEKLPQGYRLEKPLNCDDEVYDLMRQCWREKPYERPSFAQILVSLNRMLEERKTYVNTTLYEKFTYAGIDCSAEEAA

In general, IC50 refers to the midpoint of a concentration-inhibition curve. For the molecule `COc1ccc(NC(=O)Nc2ccc(Oc3ncnc4ccn(C)c34)cc2Cl)cc1C(F)(F)F`, the IC50 in series [1] stood at 0.0094 µM.

Turning to `Cn1nc(C(C)(C)C)cc1NC(=O)Nc1ccc(Oc2ncnc3ccn(C)c23)cc1Cl`, half-maximal inhibition in [1] (IC50) was put at 0.019 µM.

`Cn1ccc2ncnc(Oc3ccc(NC(=O)Nc4cncc(C(F)(F)F)c4)c(Cl)c3)c21` displayed an IC50 in series [1] of 0.0029 µM.

For the molecule `O=C(Nc1cccc(C(F)(F)F)c1)Nc1ccc(Oc2ncnc3ccn(CCOCCO)c23)cc1Cl`, it took 0.0027 µM to reach half-maximal inhibition in series [1] (IC50).

A word on the solubility: it is how much of the substance goes into solution per volume. The low end stands for little dissolved substance, the high end for much dissolved substance. Take `Cn1ccc2ncnc(Oc3ccc(NC(=O)Nc4cccc(C(F)(F)F)c4)c(Cl)c3)c21`: the IC50 in the series with HUVEC [2] worked out at 0.23 µM. For the same molecule, in series [3], the concentration in solution (solubility) came to 0.09 µg/mL (≈ 0.195 µM).

For `Cn1ccc2ncnc(Oc3ccc(NC(=O)Nc4cnn(CC(F)(F)F)c4)c(Cl)c3)c21`, the IC50 in [1] turned out to be 0.004 µM.

As for `CN1CCN(Cc2ccc(NC(=O)Nc3ccc(Oc4ncnc5ccn(C)c45)cc3Cl)cc2C(F)(F)F)CC1`, the IC50 was found to be 0.02 µM in the series on HUVEC [2], 0.038 µM in the series on HUVEC [4] and 0.0093 µM in series [1]. For the same molecule, in series [3], the solubility was 19 µg/mL (≈ 33.1 µM).

On to `Cn1ccc2ncnc(Oc3ccc(NC(=O)Nc4cccnc4)c(Cl)c3)c21`, for which the values for the IC50 in [1] and in [5] were 0.23 µM and more than 10 µM, respectively.

Take `Cn1c(C(C)(C)O)cc2ncnc(Oc3ccc(NC(=O)Nc4cccc(C(F)(F)F)c4)c(Cl)c3)c21`: 0.018 µM corresponded to half-maximal inhibition in [1] (IC50).

In series [1], `COc1cc(NC(=O)Nc2ccc(Oc3ncnc4ccn(C)c34)cc2Cl)cc(C(F)(F)F)c1` had an IC50 of 0.02 µM.

As to `O=C(Nc1cccc(C(F)(F)F)c1)Nc1ccc(Oc2ncnc3ccn(CCO)c23)cc1Cl`, the IC50 in [1] was 0.004 µM.

As to `CN1CCC(Oc2ccc(NC(=O)Nc3ccc(Oc4ncnc5ccn(C)c45)cc3Cl)cc2C(F)(F)F)CC1`, the IC50 in series [1] amounted to 0.012 µM.

As to `Cn1ccc2ncnc(Oc3ccc(NC(=O)Nc4cccc(C(F)(F)F)c4)c(F)c3)c21`, the half-inhibitory concentration (IC50) against Angiopoietin-1 receptor is less than 0.1 µM; in series [6], less than 0.1 µM; in [7] it was more than 10 µM; in series [8], less than 0.1 µM; in series [5], more than 10 µM.

In [1], `CN1CCN(Cc2cc(NC(=O)Nc3ccc(Oc4ncnc5ccn(C)c45)cc3Cl)cc(C(F)(F)F)c2)CC1` gave a half-maximal inhibitory concentration (IC50) of 0.011 µM.

`Cn1ccc2ncnc(Oc3ccc(NC(=O)Nc4ccnc(C(F)(F)F)c4)c(Cl)c3)c21` showed an IC50 in series [1] of 0.0038 µM.

As to `Cn1ccc2ncnc(Oc3ccc(NC(=O)Nc4ccccn4)c(Cl)c3)c21`, the IC50 in [1] is 0.21 µM; in [5], more than 10 µM.

Regarding `Cn1ccc2ncnc(Oc3ccc(NC(=O)Nc4cc(N5CCOCC5)cc(C(F)(F)F)c4)c(Cl)c3)c21`, the IC50 in [1] came out at 0.06 µM.

As to `Cn1ccc2ncnc(Oc3ccc(NC(=O)Nc4cnn(C(C)(C)C)c4)c(Cl)c3)c21`, the concentration for half-maximal inhibition (IC50) in series [1] was determined as 0.0076 µM.

In turn, `Cn1ccc2ncnc(Oc3ccc(NC(=O)Nc4ccc(N5CCOCC5)c(C(F)(F)F)c4)c(Cl)c3)c21` showed an IC50 in series [1] of 0.061 µM.

`Cn1ccc2ncnc(Oc3ccc(NC(=O)Nc4cc(CN5CCOCC5)cc(C(F)(F)F)c4)c(Cl)c3)c21`: the midpoint of inhibition in series [1], the IC50, lay at 0.023 µM.

In series [1], `Cn1ccc2ncnc(Oc3ccc(NC(=O)Nc4ccc(CN5CCOCC5)c(C(F)(F)F)c4)c(Cl)c3)c21` registered an IC50 of 0.019 µM.

Molecule `Cn1c(CO)cc2ncnc(Oc3ccc(NC(=O)Nc4cccc(C(F)(F)F)c4)c(Cl)c3)c21` yielded a half-maximal inhibitory concentration (IC50) in [1] of 0.0097 µM.

Take `COCc1cc2ncnc(Oc3ccc(NC(=O)Nc4cccc(C(F)(F)F)c4)c(Cl)c3)c2n1C`: the IC50 in [1] worked out at 0.014 µM.

In series [1], `Cn1ccc2ncnc(Oc3ccc(NC(=O)Nc4cc(C(C)(C)C)on4)c(Cl)c3)c21` returned an IC50 of 0.0089 µM.

For the molecule `Cn1ccc2ncnc(Oc3ccc(NC(=O)Nc4ccncc4)c(Cl)c3)c21`, the IC50 was 0.65 µM in series [1] and more than 10 µM in series [5].

In the case of `Cn1ccc2ncnc(Oc3ccc(NC(=O)Nc4cc(C(F)(F)F)ccn4)c(Cl)c3)c21`, half-maximal inhibition in series [1] (IC50) required 0.0027 µM.

As to `COCCn1ccc2ncnc(Oc3ccc(NC(=O)Nc4cccc(C(F)(F)F)c4)c(Cl)c3)c21`, in series [1], half-maximal inhibition (IC50) was put at 0.009 µM.
